{"source": "patent US20040186022A1", "about": "“Enhanced herbicides” (priority 1999, published 2004)", "key": {"[1]": {"test": "Measurement of pH values for test desiccants (Example 56)", "type": "physicochemical"}, "[2]": {"test_system": "soybeans", "test": "Synergistic relationships between succinic acid and caprylic acid at different application rates, testing soybeans", "type": "in vivo", "conditions": "2 days after a single foliar application, average of 2 sites, soybean Stine 2250; for Overall Effect: 5 equals profound desiccation", "from_the_text": "(§1) The herbicides were applied in the “spray to drip” amount or at a calibrated 20-60 gallons/acre. “Spray to drip” is an uncalibrated application of fluid to foliage, where sufficient spray volume is used to sufficiently saturate the foliage surface until excess fluid begins to drip from the foliage."}, "[3]": {"test": "Measurement of pH values for test desiccants (Example 55)", "type": "physicochemical"}, "[4]": {"test_system": "Turf and Shrub Foliage", "test": "Effects of various compounds on caprylic acid, testing turf and shrub foliage", "type": "in vivo", "conditions": "3, 4, 6 and 7 days after a single foliar application, 5 equals profound desiccation", "from_the_text": "as §1"}, "[5]": {"test_system": "Turf", "test": "Synergistic relationships between succinic acid and caprylic acid (or sodium salicylate), testing turf", "type": "in vivo", "conditions": "2 days after a single foliar application, 5 equals profound desiccation", "from_the_text": "as §1"}, "[6]": {"test_system": "Turf and Covergrass", "test": "Effects of various compounds on caprylic acid, testing turf and covergrass", "type": "in vivo", "conditions": "1, 3, 6, 7 and 11 days after a single foliar application at two independent sites, 5 equals profound desiccation", "from_the_text": "as §1"}, "[7]": {"test_system": "60 G/a: lambsquarter, foxtail and velvetleaf; spray to drip: snapbeans, corn and tomatoes", "test": "Succinic acid enhancement of oleic acid/sodium salicylate herbicidal activity (60 G/a and spray to drip)", "type": "in vivo", "from_the_text": "as §1"}, "[8]": {"test_system": "lambsquarter, velvetleaf, foxtail, nutsedge and potatoes", "test": "Succinic acid enhancement of oleic acid/sodium salicylate herbicidal activity (spray to drip)", "type": "in vivo", "from_the_text": "as §1"}, "[9]": {"test_system": "Cotton", "conditions": "2 days after a single foliar application", "from_the_text": "as §1"}, "[10]": {"test_system": "mixed weed varieties; Canadian thistle", "test": "Field trial comparisons of caprylic/capric and pelargonic acids on mixed weed varieties (Example 58)", "type": "in vivo", "conditions": "rating 1-5 for each of 2 plots per treatment group, 5 = complete desiccation", "from_the_text": "as §1"}, "[11]": {"test_system": "mixed weed varieties", "test": "Field trial comparisons of caprylic/capric and pelargonic acids on mixed weed varieties (Example 57)", "type": "in vivo", "conditions": "rating 1-5 for each of 2 plots per treatment group, 5 = complete desiccation; grasses (dominant), dandelion, pigweed, plantain and Canadian thistle", "from_the_text": "as §1"}, "[12]": {"test_system": "60 G/a: velvetleaf, black nightshade, redroot pigweed, foxtail and snapbeans; spray to drip: black nightshade, velvetleaf, foxtail and snapbeans", "test": "Efficacy of 1.5% succinic acid with oleic, caprylic or pelargonic acid in an emulsification system (Emsorb 6900)", "type": "in vivo", "set-up": "Injury rating, total score for 2 evaluation, Spray to drip / Injury rating, total score for 2 evaluation, Total Rating: scale not given here", "from_the_text": "as §1"}, "[13]": {"test_system": "cotton plants, DeltaPine NuCotn 33-b, open boll", "test": "Synergistic relationships between 5% caprylic/capric (c/c) and succinic acid: desiccation of cotton plants", "type": "in vivo", "conditions": "footnote", "from_the_text": "(§2) The herbicides were applied in the “spray to drip” amount or at a calibrated 20-60 gallons/acre. “Spray to drip” is an uncalibrated application of fluid to foliage, where sufficient spray volume is used to sufficiently saturate the foliage surface until excess fluid begins to drip from the foliage. In general, about 5 to 200 gallons/acre, preferably 20-100 gallons/acre can be effective."}, "[14]": {"test_system": "Cotton (DeltaPine NuCotn 33b)", "test": "Synergistic relationship between caprylic/capric (c/c) and succinic acid as harvest aids, cotton", "type": "in vivo", "conditions": "footnote; cotton and potatoes", "from_the_text": "as §2"}, "[15]": {"test_system": "60 G/a: redroot pigweed, velvetleaf, snapbeans, cotton and potatoes; spray to drip: black nightshade, lambsquarter, foxtail and snapbeans", "conditions": "footnote", "from_the_text": "as §1"}, "[16]": {"test_system": "sudan grass, green foxtail, barnyard grass and pigweed", "test": "Enhancement of RoundUp Ultra (+/- ammonium sulfate) by succinic acid, 1 quart per acre", "type": "in vivo", "conditions": "footnote", "from_the_text": "as §1"}, "[17]": {"test_system": "60 G/a: redroot pigweed, foxtail and velvetleaf; spray to drip: foxtail, dry beans and pigweed", "test": "Herbicidal activity: caprylic acid and succinic acid +/- ammonium sulfate", "type": "in vivo", "conditions": "footnote", "from_the_text": "as §1"}, "[18]": {"test_system": "Kentucky bluegrass, barnyard grass, crab grass, pigweed, redtop, nutsedge, wheat and foxtail", "test": "Enhancement of RoundUp Ultra (+/- ammonium sulfate) by succinic acid, 1 pint/acre, no surfactant", "type": "in vivo", "conditions": "footnote", "from_the_text": "as §1"}, "[19]": {"test_system": "cotton (DeltaPine NuCotn 33b) foliage", "test": "Herbicidal activity on cotton foliage: succinic acid and caprylic/capric acid (c/c) combinations", "type": "in vivo", "conditions": "footnote", "from_the_text": "as §2"}, "[20]": {"test_system": "60 G/a: nightshade, pigweed, foxtail barnyard grass, sudan grass and cotton (DeltaPine NuCotn 33b); spray to drip: Kentucky bluegrass, nutsedge, barnyard …", "test": "Herbicidal activities: succinic acid and caprylic/capric acid (c/c) combinations", "type": "in vivo", "conditions": "footnote", "from_the_text": "as §2"}, "[21]": {"test_system": "barnyard grass, green foxtail, sudan grass and pigweed", "test": "Enhancement of RoundUp Ultra (+/- ammonium sulfate) by succinic acid, 1 pint/acre, with Sylgard 309", "type": "in vivo", "conditions": "footnote", "from_the_text": "as §1"}, "[22]": {"test_system": "cotton (DeltaPine NuCotn 33b), potatoes (Snowden), pigweed, sudan grass, wheat, foxtail, dry beans and velvetleaf", "test": "Synergistic relationships between 5% caprylic/capric (c/c) and succinic acid", "type": "in vivo", "conditions": "footnote", "from_the_text": "as §2"}, "[23]": {"test_system": "40 G/a: crab grass, chickweed and common lambsquarter; 60 G/a: redtop, pigweed, foxtail; spray to drip: barnyard grass, foxtail, sudan grass and nutsedge", "test": "Herbicidal combinations of caprylic/capric (c/c) or pelargonic acid with equimolar succinic acid and ammonium succinate, on weed varieties", "type": "in vivo", "conditions": "footnote"}, "[24]": {"test_system": "Redwood pigweed", "test": "Field trial comparisons of caprylic/capric and pelargonic acids, redroot pigweed (Example 58)", "type": "in vivo", "conditions": "rating 1-5 for each of 2 plots per treatment group, 5 = complete desiccation"}, "[25]": {"test_system": "Turf and Shrub Foliage", "conditions": "1, 2, 4 and 7 days after a single foliar application, 5 equals profound desiccation", "from_the_text": "as §1"}, "[26]": {"test_system": "soybeans", "test": "Synergistic relationships: succinic acid + caprylic acid, succinic acid + sodium salicylate, testing soybeans", "type": "in vivo", "conditions": "3 days after a single foliar application, soybean Stine 2250", "from_the_text": "as §1"}}}
{"smiles": "CCCCCCCC(=O)O", "note": "[Caprylic Acid (1.0%)]", "values": [{"measurement": "pH Value", "setting": "[1]", "result": 3.85}, {"measurement": "Foliage Affected (%)", "setting": "[2]", "result": 22.3, "unit": "%"}, {"measurement": "Overall Effect", "setting": "[2]", "result": 4}, {"measurement": "pH Value", "setting": "[3]", "result": 3.93}, {"measurement": "Overall Effect, 29 Evaluations (average)", "setting": "[4]", "result": 1.05}, {"measurement": "Overall Effect", "setting": "[5]", "result": 2}, {"measurement": "Overall Effect, 10 Evaluations (average)", "setting": "[6]", "result": 2.45}]}
{"smiles": "CCCCCCCC/C=C\\CCCCCCCC(=O)O", "note": "[2% oleic acid, oleic acid]", "values": [{"measurement": "Total Injury rating, Total", "setting": "[7]; 60 G/a plus spray to drip", "result": 45.8}, {"measurement": "Total Injury rating, 60 G/a", "setting": "[7]; 60 G/a, lambsquarter, foxtail and velvetleaf, rating 1-5 per pot, two evaluations", "result": 23.5}, {"measurement": "Average rating per pot", "setting": "[7]; scale 1-5, 60 G/a and spray to drip", "result": 1.91}, {"measurement": "Total injury rating (sum over pots and evaluations)", "setting": "[8]; rating 1-5 per pot, two evaluations, 50% acetone, 0.3% Sylgard 309", "result": 26.4}, {"measurement": "Injury rating, Average rating per pot", "setting": "[8]; scale 1-5, spray to drip", "result": 2.2}]}
{"smiles": "O=C([O-])c1ccccc1O.[Na+]", "note": "[Sodium Salicylate (1.0%)]", "values": [{"measurement": "Foliage Affected (%)", "setting": "[9]", "result": "<70", "unit": "%"}, {"measurement": "pH Value", "setting": "[3]", "result": 5.63}, {"measurement": "Overall Effect", "setting": "[5]", "result": 1.5}]}
{"smiles": "CCCCCCCCC(=O)O", "note": "[3% pelargonic, pelargonic acid]", "values": [{"measurement": "Average injury rating per plot", "setting": "[10]", "result": 4.03}, {"measurement": "Average injury rating per plot", "setting": "[11]", "result": 4.175}, {"measurement": "Injury rating, total score for 2 evaluation, Total Rating", "setting": "[12]; 60 G/a plus spray to drip", "result": 122.9}, {"measurement": "Injury rating, total score for 2 evaluation, 60 G/a", "setting": "[12]; 60 G/a, rating 1-5 per pot, 1% Emsorb, 0.3% Hasten", "result": 85.3}, {"measurement": "Average rating per pot", "setting": "[12]; scale 1-5", "result": 4.39}, {"measurement": "Injury rating, total score for 2 evaluation, Spray to drip", "setting": "[12]; spray to drip", "result": 37.6}]}
{"smiles": "O=C(O)CCC(=O)O", "note": "[succinic acid]", "values": [{"measurement": "Rating of succinic acid alone", "setting": "[13]", "result": "Treatment of plants with succinic acid, alone, had a rating of zero"}, {"measurement": "Rating of succinic acid alone", "setting": "[14]", "result": "Treatment of plants with succinic acid, alone, had a rating of zero"}, {"measurement": "Rating of succinic acid alone", "setting": "[15]", "result": "Succinic acid, alone, had a rating of zero. Succinic acid was synergistic with oleic, caprylic and pelargonic acids"}, {"measurement": "Rating of succinic acid tested alone", "setting": "[16]", "result": "Succinic acid tested alone had a rating of zero. RoundUp Ultra, alone or RoundUp Ultra + ammonium sulfate were synergistic with succinic acid"}, {"measurement": "Rating of succinic acid alone", "setting": "[17]", "result": "Succinic acid, alone, had a rating of zero. Caprylic acid + succinic acid was synergistic"}, {"measurement": "Rating of succinic acid tested alone", "setting": "[18]", "result": "Succinic acid tested alone had a rating of zero. RoundUp Ultra, alone or RoundUp Ultra + ammonia sulfate were synergistic with succinic acid"}, {"measurement": "Rating of succinic acid tested alone", "setting": "[19]", "result": "Since succinic acid tested alone had a rating of zero, caprylic/capric + succinic acid was synergistic"}, {"measurement": "Rating of succinic acid alone", "setting": "[12]; footnote", "result": "Succinic acid, alone, had a rating of zero. Succinic acid was synergistic with oleic, caprylic and pelargonic acids"}, {"measurement": "Rating of succinic acid alone", "setting": "[20]", "result": "Since succinic acid, alone had a rating of zero, caprylic/capric + succinic acid was synergistic"}, {"measurement": "Rating of succinic acid tested alone", "setting": "[21]", "result": "Succinic acid tested alone had a rating of zero. RoundUp Ultra, alone or RoundUp Ultra + ammonium sulfate were synergistic with succinic acid."}, {"measurement": "Rating of succinic acid alone", "setting": "[22]", "result": "Treatment of plants with succinic acid, alone, had a rating of zero"}, {"measurement": "Rating of additive tested alone", "setting": "[23]", "result": "Since succinic acid (or ammonium succinate) tested alone had a rating of zero, pelargonic acid (or c/c) + succinic acid (or ammonium succinate) were synergistic. The exception was: 3% pelargonic acid + 1.26% ammonium succinate"}]}
{"smiles": "CCCCCCCCC(=O)O", "note": "[6% pelargonic]", "values": [{"measurement": "Average injury rating per plot", "setting": "[24]", "result": 4.35}]}
{"smiles": "O=C(O)CCC(=O)O", "note": "[Succinic Acid (1.0%)]", "values": [{"measurement": "Foliage Affected (%)", "setting": "[9]", "result": "No effect"}, {"measurement": "Foliage Affected (%)", "setting": "[2]", "result": 0, "unit": "%"}, {"measurement": "Overall Effect", "setting": "[2]", "result": 0}, {"measurement": "pH Value", "setting": "[3]", "result": 1.85}]}
{"smiles": "O=C(O)CCC(=O)O", "note": "[Succinic Acid (2%)]", "values": [{"measurement": "Overall effect, 17 evaluations (average)", "setting": "[25]", "result": 0.24}]}
{"smiles": "O=C([O-])c1ccccc1O.[Na+]", "note": "[Sodium Salicylate (1%)]", "values": [{"measurement": "Overall effect, 17 evaluations (average)", "setting": "[25]", "result": 1.35}, {"measurement": "Foliage Affected (%)", "setting": "[26]", "result": "15-20%"}, {"measurement": "Overall Effect", "setting": "[26]; 5 equals profound desiccation", "result": 1.5}]}
